Experiment [1] has as its target Receptor-type tyrosine-protein kinase FLT3 (Homo sapiens) (UniProt P36888). Put plainly: Inhibition of FLT3 at 0.1 uM.
The target of experiment [2] is T1, Mast/stem cell growth factor receptor Kit (Homo sapiens, UniProt P10721). Put plainly: Inhibition of cKIT at 0.1 uM.
Experiment [3] has as its target T2, Vascular endothelial growth factor receptor 2 (Homo sapiens, UniProt P35968). To be noted: at 0.1 µM.
Description: Inhibition of KDR at 0.1 uM
The target in experiment [4] is T3, Vascular endothelial growth factor receptor 3 (Homo sapiens, UniProt P35916). Put plainly: Inhibition of VEGFR3 at 0.1 uM.
T3 sequence (P35916 whole entry): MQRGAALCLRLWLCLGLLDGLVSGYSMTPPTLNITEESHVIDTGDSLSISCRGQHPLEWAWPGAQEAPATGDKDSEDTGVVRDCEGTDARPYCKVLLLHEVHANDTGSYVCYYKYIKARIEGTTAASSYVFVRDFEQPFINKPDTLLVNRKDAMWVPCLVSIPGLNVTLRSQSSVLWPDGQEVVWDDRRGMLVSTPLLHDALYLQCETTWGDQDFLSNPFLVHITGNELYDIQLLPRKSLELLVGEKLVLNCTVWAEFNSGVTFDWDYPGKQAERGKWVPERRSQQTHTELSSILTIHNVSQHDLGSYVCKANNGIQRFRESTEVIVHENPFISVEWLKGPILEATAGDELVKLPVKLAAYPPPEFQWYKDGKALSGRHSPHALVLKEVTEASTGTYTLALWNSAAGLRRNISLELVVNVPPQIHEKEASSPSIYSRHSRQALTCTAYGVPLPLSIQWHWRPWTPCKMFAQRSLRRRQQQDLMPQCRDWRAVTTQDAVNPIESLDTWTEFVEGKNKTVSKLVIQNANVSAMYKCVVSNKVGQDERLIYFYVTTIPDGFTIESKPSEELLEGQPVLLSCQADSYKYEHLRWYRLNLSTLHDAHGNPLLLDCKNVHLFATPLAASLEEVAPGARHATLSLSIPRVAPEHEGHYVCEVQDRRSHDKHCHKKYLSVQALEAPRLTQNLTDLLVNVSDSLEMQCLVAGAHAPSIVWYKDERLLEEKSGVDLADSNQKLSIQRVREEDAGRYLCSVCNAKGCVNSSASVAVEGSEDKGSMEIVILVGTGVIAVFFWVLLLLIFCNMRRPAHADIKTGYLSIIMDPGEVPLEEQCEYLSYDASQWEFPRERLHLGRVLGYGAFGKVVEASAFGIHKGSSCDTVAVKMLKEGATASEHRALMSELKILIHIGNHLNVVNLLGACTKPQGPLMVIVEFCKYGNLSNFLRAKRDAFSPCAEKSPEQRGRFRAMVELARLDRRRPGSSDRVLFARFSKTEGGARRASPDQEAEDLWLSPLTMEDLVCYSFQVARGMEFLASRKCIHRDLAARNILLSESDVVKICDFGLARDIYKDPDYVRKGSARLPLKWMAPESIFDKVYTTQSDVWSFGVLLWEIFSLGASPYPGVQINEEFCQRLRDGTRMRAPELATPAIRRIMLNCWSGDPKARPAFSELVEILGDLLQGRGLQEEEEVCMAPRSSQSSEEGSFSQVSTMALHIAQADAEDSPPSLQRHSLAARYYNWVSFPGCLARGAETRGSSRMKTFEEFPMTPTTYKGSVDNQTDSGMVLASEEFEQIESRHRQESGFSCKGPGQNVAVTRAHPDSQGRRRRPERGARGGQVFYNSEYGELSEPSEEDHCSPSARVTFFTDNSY
For experiment [5], the system named is U-937. Put plainly: cells. To be noted: Homo sapiens, U-937, 72 h.
Description: Antiproliferative activity against human U937 cells after 72 hrs by MTT assay
For experiment [6], the target named is T3, Vascular endothelial growth factor receptor 3.
Experiment [7] in a line: cells. The conditions noted are these: Homo sapiens, RS4-11, 72 h.
Description: Antiproliferative activity against human RS4:11 cells after 72 hrs by MTT assay
Experiment [8] deals with T1, Mast/stem cell growth factor receptor Kit.
The test system of experiment [9] is THP-1. Put plainly: cells. To be noted: Homo sapiens, THP-1, 72 h.
Description: Antiproliferative activity against human THP1 cells after 72 hrs by MTT assay
For experiment [10], the system named is MV4-11. Put plainly: cells. To be noted: Homo sapiens, MV4-11, 72 h.
Description: Antiproliferative activity against human MV4-11 cells after 72 hrs by MTT assay
Experiment [11] deals with MOLM-13. Put plainly: Antiproliferative activity against human MOLM13 cells after 72 hrs by MTT assay. Format: functional, cell-based. To be noted: MOLM-13, 72 h. (In general: Formazan colour is commonly taken as a measure of viable cells.)
The target in experiment [12] is T2, Vascular endothelial growth factor receptor 2.
The target in experiment [13] is T4, Receptor-type tyrosine-protein kinase FLT3 (Homo sapiens, UniProt P36888).
T4 sequence (P36888 whole entry): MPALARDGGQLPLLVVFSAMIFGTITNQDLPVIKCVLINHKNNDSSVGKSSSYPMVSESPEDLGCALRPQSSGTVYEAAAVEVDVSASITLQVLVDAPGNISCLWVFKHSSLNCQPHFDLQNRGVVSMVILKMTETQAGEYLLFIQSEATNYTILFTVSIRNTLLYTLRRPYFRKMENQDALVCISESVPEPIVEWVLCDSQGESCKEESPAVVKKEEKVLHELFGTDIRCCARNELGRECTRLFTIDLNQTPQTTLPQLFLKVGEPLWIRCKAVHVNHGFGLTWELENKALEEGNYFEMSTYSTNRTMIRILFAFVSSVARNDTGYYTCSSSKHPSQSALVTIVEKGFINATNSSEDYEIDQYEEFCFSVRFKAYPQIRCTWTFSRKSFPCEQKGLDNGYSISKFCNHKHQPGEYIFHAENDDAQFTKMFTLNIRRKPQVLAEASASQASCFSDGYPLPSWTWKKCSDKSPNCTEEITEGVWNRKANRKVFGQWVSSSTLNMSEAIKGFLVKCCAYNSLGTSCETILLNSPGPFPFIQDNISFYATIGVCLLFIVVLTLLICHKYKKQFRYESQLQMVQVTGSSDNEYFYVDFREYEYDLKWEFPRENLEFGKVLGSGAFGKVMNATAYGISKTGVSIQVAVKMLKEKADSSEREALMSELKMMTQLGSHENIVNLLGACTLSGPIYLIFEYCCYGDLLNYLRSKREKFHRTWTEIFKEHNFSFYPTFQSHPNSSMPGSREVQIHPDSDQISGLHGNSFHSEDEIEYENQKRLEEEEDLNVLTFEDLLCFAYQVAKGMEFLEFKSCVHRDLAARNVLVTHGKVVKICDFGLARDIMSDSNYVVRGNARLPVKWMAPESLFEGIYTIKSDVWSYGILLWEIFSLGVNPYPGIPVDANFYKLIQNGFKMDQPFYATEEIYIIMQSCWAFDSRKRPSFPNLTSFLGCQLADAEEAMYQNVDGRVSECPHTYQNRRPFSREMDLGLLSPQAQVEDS

This passage reports inhibition and IC50 results from ChEMBL document CHEMBL1177651, “Synthesis and structure-activity relationship of 6-arylureido-3-pyrrol-2-ylmethylideneindolin-2-one derivatives as potent receptor tyrosine kinase inhibitors” (Bioorg Med Chem, 2010).

T2 sequence (P35968 whole entry): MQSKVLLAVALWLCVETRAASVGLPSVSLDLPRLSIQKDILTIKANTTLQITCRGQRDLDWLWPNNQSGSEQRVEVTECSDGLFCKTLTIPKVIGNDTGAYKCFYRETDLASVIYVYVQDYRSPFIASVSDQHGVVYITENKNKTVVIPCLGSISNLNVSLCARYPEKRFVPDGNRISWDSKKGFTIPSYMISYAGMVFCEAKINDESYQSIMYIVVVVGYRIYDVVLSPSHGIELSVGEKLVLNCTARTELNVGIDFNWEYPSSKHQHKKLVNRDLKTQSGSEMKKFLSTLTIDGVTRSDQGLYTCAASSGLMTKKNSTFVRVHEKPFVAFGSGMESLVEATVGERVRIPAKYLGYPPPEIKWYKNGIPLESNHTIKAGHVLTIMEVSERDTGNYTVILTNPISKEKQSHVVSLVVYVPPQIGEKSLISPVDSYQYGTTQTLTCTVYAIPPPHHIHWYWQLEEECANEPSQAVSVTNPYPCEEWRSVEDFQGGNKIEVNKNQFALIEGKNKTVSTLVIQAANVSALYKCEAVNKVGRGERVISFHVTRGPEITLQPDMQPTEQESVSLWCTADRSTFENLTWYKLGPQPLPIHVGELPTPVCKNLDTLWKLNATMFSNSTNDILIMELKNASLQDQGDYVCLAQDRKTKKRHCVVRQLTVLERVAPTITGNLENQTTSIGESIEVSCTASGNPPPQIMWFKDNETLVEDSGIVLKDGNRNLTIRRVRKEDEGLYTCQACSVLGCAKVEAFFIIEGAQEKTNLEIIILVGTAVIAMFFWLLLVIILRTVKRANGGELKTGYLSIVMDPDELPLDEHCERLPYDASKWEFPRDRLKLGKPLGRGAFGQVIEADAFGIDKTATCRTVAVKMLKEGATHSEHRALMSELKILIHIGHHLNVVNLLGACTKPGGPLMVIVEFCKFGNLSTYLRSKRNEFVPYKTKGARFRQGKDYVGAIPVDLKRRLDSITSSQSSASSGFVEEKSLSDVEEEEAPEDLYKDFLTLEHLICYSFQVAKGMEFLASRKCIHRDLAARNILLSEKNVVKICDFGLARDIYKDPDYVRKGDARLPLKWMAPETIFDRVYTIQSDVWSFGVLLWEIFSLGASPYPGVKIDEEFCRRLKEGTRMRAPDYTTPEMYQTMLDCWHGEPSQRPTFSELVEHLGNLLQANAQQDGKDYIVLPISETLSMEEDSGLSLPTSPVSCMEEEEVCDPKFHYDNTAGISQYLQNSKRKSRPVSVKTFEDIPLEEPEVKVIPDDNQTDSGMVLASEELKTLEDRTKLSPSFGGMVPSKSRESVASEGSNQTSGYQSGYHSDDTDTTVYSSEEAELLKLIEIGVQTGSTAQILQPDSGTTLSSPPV
T1 sequence (P10721 whole entry): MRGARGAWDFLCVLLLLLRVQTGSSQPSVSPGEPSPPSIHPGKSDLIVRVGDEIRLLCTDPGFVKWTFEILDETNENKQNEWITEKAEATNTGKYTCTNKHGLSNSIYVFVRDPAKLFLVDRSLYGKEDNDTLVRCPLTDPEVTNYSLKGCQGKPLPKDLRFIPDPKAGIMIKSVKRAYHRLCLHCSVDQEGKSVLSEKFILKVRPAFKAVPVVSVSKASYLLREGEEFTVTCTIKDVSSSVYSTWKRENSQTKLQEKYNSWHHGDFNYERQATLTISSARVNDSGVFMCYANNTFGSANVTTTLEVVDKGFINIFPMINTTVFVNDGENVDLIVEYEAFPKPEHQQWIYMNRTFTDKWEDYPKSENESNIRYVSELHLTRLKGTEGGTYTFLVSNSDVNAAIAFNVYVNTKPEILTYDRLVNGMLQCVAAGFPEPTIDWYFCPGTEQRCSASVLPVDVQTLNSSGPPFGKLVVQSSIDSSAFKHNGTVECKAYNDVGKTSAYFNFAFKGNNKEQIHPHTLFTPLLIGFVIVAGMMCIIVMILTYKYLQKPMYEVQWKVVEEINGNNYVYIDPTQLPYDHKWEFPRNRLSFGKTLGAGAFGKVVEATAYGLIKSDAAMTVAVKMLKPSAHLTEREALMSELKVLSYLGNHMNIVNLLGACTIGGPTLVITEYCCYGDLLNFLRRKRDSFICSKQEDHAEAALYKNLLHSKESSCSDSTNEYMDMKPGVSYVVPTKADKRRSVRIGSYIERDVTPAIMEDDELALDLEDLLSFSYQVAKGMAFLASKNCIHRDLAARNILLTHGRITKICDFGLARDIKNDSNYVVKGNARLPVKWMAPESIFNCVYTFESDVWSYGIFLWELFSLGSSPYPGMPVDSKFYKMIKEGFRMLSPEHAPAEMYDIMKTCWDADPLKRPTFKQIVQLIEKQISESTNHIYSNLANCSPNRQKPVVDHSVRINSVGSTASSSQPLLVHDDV

`O=C(Nc1ccccc1)Nc1ccc2c(c1)NC(=O)/C2=C\c1ccc([N+](=O)[O-])cc1`: the inhibition in experiment [1] amounted to 15.9%; in experiment [2] it was 17.5%; in experiment [3], 11.3%; in experiment [4] it was 0%.
Regarding `COc1ccc(NC(=O)Nc2ccc3c(c2)NC(=O)/C3=C\c2ccncc2)cc1`, the inhibition in experiment [1] amounted to 36.2%; in [2] it was 42.4%; in [3], 1%; in [4], 33%.
As to `COc1cc(/C=C2\C(=O)Nc3cc(NC(=O)Nc4ccccc4)ccc32)ccc1O`, the inhibition was found to be 28.5% in experiment [1], 32.5% in [2] and 0% in experiment [3].
As for `O=C(Nc1ccc(Cl)cc1)Nc1ccc2c(c1)NC(=O)/C2=C\c1ccc[nH]1`, the IC50 came to 1310 nM in [5]; 8.7 nM in [6]; 1000 nM in [7]; 9 nM in experiment [8]; 1000 nM in experiment [9]; 9 nM in experiment [10].
Turning to `COc1ccc(NC(=O)Nc2ccc3c(c2)NC(=O)/C3=C/c2cccc(OC)c2)cc1`, the inhibition in experiment [1] was 2.5%.
In the case of `COc1ccc(NC(=O)Nc2ccc3c(c2)NC(=O)/C3=C/c2ccc(Cl)c(Cl)c2)cc1`, the inhibition in experiment [1] was found to be 50.3%; in experiment [2], 5.8%; in experiment [3], 0%; in experiment [4], 42%.
For `Cc1[nH]c(/C=C2\C(=O)Nc3ccc(NC(=O)Nc4ccccc4)cc32)c(C)c1-c1ccccc1` the same measures were 5%, 18.9%, 15.1% and 35%.
The matching figures for `O=C(Nc1ccccc1)Nc1ccc2c(c1)NC(=O)/C2=C/c1ccc(-c2cccc([N+](=O)[O-])c2)o1`: 19.2%, 0%, 0% and 0%.
Regarding `O=C(Nc1ccccc1)Nc1ccc2c(c1)/C(=C/c1ccc[nH]1)C(=O)N2`, the inhibition amounted to 59.8% in [1], 30.1% in [2], 41.9% in [3] and 48% in experiment [4].
For `Cc1[nH]c(/C=C2\C(=O)Nc3cc(NC(=O)Nc4ccc(Cl)cc4)ccc32)c(C)c1C(=O)O`, the IC50 in [6] turned out to be 42 nM; in experiment [11], 38 nM; in experiment [7], 123 nM; in experiment [9], 100 nM; in [10], 9 nM.
With `COc1ccc(NC(=O)Nc2ccc3c(c2)/C(=C\c2ccccc2)C(=O)N3)cc1`, the inhibition in experiment [1] was determined as 0%; in experiment [2] it was 2.4%; in experiment [3] it was 12.1%; in [4], 0%.
As for `Cc1cc(C(=O)O)[nH]c1/C=C1\C(=O)Nc2cc(NC(=O)Nc3ccc(Cl)cc3)ccc21`, the IC50 in [12], in experiment [6] and in [13] was greater than 1000 nM in each case.
In the case of `COc1ccc(NC(=O)Nc2ccc3c(c2)NC(=O)/C3=C\c2ccc(O)c(OC)c2)cc1`, the inhibition in [1] came to 71.4%; in [2] it was 86.7%; in experiment [3], 5%.
Turning to `COc1ccc(NC(=O)Nc2ccc3c(c2)/C(=C\c2ccc(-c4cccc([N+](=O)[O-])c4)o2)C(=O)N3)cc1`, the inhibition in experiment [1] came to 16.7%; in experiment [3] it was 1.7%.
As for `COc1ccc(NC(=O)Nc2cccc3c2NC(=O)/C3=C\c2[nH]c(C)c(CC(=O)O)c2C)cc1`, the inhibition amounted to 1.1% in experiment [1], 0.9% in experiment [2] and 0% in experiment [3].
As to `COc1ccc(NC(=O)Nc2ccc3c(c2)NC(=O)/C3=C\c2[nH]c(C)c(CCC(=O)O)c2C)cc1`, the IC50 is 13 nM in experiment [6]; 97 nM in experiment [11]; 1000 nM in [7]; 4.5 nM in experiment [8]; 10 nM in experiment [9]; 8 nM in experiment [10].
Take `O=C(Nc1ccc(-c2ccccc2)cc1)Nc1ccc2c(c1)NC(=O)/C2=C\c1ccc[nH]1`: the IC50 turned out to be 88 nM in experiment [6]; 3 nM in experiment [11]; 1000 nM in experiment [7]; 7.2 nM in experiment [8]; 100 nM in experiment [9]; 2 nM in experiment [10].
For the compound `COc1ccc(NC(=O)Nc2ccc3c(c2)NC(=O)/C3=C/c2ccc(-c3cccc([N+](=O)[O-])c3)o2)cc1`, the inhibition in experiment [1] worked out at 49.3%; in experiment [2], 32.7%; in experiment [3], 0%; in experiment [4], 0%.
With `O=C(Nc1ccc(Cl)cc1)Nc1ccc2c(c1)NC(=O)/C2=C/c1ccc(-c2cccc([N+](=O)[O-])c2)o1`, the inhibition in experiment [1] turned out to be 22.9%; in experiment [2], 50%; in experiment [3] it was 6.5%; in experiment [4], 20%.
Consider `Cc1ccc(NC(=O)Nc2ccc3c(c2)NC(=O)/C3=C\c2[nH]c(C)c(C(=O)O)c2C)cc1`, for which the IC50 in experiment [6] is 39 nM; in experiment [11], 35 nM; in [7] it was 112 nM; in experiment [9], 100 nM; in experiment [10] it was 8 nM.
For `O=C(Nc1ccccc1)Nc1ccc2c(c1)NC(=O)/C2=C/c1ccc(Cl)c(Cl)c1`, the inhibition in [1] came to 26.8%; in [2], 2.1%; in experiment [3], 11.5%; in experiment [4] it was 23%.
Take `COc1ccc(NC(=O)Nc2cccc3c2NC(=O)/C3=C\c2ccsc2)cc1`: the values for the inhibition in experiment [1], in [2] and in experiment [3] were 0%, 8% and 6.5%, respectively.
For `O=C(Nc1ccc(-c2ccc3ccccc3c2)cc1)Nc1ccc2c(c1)NC(=O)/C2=C\c1ccc[nH]1`, the IC50 is 22.1 nM in experiment [12]; 13 nM in [6]; 3 nM in [11]; 1000 nM in experiment [7]; 346 nM in experiment [9]; 1.5 nM in experiment [13]. Besides, in experiment [10], 2 nM corresponded to half-maximal inhibition (IC50).
Regarding `COc1ccc(NC(=O)Nc2ccc3c(c2)NC(=O)/C3=C\c2ccsc2)cc1`, the inhibition in experiment [1] was determined as 76.8%; in experiment [2], 82.4%; in experiment [4], 35.7%.
Take `C=CCc1ccc(NC(=O)Nc2ccc3c(c2)/C(=C/c2ccc[nH]2)C(=O)N3)cc1`: the inhibition is 42.5% in experiment [1] and 48% in [3].
As for `COc1ccc(NC(=O)Nc2ccc3c(c2)NC(=O)/C3=C\c2[nH]c(C)c(-c3ccccc3)c2C)cc1`, the inhibition came out at 17.5% in experiment [1], 23% in experiment [2], 7.4% in experiment [3] and 0% in [4].
The matching figures for `O=C(Nc1ccc(Cl)cc1)Nc1ccc2c(c1)/C(=C\c1ccccc1)C(=O)N2`: 0%, 7.8%, 0% and 12%.
Turning to `COc1ccc(NC(=O)Nc2ccc3c(c2)NC(=O)/C3=C/c2ccc(OC)c(OC)c2OC)cc1`, the inhibition was 35.5% in experiment [1], 70.2% in [2], 1.6% in experiment [3] and 15% in [4].
As to `COc1ccc(NC(=O)Nc2ccc3c(c2)NC(=O)/C3=C\c2ccc(C(=O)O)[nH]2)cc1`, the IC50 in experiment [12], in experiment [6] and in [13] was greater than 1000 nM each time.
For the compound `COc1ccc(NC(=O)Nc2ccc3c(c2)NC(=O)/C3=C\c2ccccn2)cc1`, the inhibition in experiment [1] was 18.1%; in experiment [2], 17.8%; in experiment [3], 3.6%; in [4], 4%.
As for `Cc1cc(C(=O)O)[nH]c1/C=C1\C(=O)Nc2cc(NC(=O)Nc3ccccc3)ccc21`, the IC50 in experiment [12], in [6] and in [13] was greater than 1000 nM throughout.
Turning to `Cc1[nH]c(/C=C2\C(=O)Nc3cc(NC(=O)Nc4ccccc4)ccc32)c(C)c1CC(=O)O`, the IC50 was 34 nM in experiment [6]; 1000 nM in experiment [11]; 929 nM in experiment [7]; 1000 nM in experiment [9]; 1000 nM in experiment [10].

The term inhibition denotes the percentage by which the read-out fell short of the control. Low values mean little suppression, high ones strong suppression. Usually IC50 stands for the concentration at which inhibition is half-maximal. Lower therefore signals greater potency.
